Data on three molecules can be found in ChEMBL document CHEMBL4190379 (Bioorg Med Chem Lett, 2018).

The target of the first assay is T1, Bromodomain-containing protein 1 (Homo sapiens) (UniProt O95696).
T1 sequence (whole entry): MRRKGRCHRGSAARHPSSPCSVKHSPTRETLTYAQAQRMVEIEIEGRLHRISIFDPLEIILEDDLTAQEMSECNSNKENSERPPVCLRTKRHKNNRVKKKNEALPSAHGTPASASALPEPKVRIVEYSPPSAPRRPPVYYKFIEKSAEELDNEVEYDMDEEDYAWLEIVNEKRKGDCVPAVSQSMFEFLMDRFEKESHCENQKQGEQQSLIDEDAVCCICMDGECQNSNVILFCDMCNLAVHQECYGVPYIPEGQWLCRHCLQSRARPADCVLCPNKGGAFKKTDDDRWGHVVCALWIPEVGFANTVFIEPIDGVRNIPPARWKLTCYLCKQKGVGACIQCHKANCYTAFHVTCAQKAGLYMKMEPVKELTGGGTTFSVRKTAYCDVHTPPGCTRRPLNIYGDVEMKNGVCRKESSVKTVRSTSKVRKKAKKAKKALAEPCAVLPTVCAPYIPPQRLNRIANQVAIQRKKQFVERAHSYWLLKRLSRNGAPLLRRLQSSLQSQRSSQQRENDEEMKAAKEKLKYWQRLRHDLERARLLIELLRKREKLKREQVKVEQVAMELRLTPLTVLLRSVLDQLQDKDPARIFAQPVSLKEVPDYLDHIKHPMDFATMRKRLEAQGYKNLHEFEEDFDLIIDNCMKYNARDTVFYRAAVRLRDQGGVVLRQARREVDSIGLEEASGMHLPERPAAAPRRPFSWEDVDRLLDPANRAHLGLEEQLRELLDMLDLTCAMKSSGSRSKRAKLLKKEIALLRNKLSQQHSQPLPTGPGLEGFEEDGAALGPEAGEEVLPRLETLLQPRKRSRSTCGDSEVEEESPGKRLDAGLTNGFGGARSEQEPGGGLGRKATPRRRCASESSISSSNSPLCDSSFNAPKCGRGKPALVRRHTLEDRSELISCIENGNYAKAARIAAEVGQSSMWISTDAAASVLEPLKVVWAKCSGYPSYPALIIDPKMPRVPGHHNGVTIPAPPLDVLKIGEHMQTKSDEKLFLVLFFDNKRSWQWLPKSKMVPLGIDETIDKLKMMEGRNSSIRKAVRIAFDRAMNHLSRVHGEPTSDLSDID
The assay is described as follows: Binding affinity to human BRD1 expressed in bacterial system assessed as remaining binding level at 1 uM by BROMOscan assay relative to control.
Settings: not given
Turning to `Cn1cc2c3c(c[nH]c(=O)c31)-c1cc(CS(C)(=O)=O)ccc1N(c1ccc(F)cc1)C2`, the Activity is 98%.
Same read-out and setting: to `Cn1cc2c3c(c[nH]c3c1=O)CN(c1ccccn1)c1ccc(CS(C)(=O)=O)cc1-2` belongs 84%.
Same read-out and setting: next, `Cn1cc2c3c(c[nH]c3c1=O)CN(c1ccc(F)cc1F)c1ccc(CS(C)(=O)=O)cc1-2`: 87%.

A further assay has as its target T2, Bromodomain-containing protein 9 (Homo sapiens) (UniProt Q9H8M2).
T2 sequence (whole entry): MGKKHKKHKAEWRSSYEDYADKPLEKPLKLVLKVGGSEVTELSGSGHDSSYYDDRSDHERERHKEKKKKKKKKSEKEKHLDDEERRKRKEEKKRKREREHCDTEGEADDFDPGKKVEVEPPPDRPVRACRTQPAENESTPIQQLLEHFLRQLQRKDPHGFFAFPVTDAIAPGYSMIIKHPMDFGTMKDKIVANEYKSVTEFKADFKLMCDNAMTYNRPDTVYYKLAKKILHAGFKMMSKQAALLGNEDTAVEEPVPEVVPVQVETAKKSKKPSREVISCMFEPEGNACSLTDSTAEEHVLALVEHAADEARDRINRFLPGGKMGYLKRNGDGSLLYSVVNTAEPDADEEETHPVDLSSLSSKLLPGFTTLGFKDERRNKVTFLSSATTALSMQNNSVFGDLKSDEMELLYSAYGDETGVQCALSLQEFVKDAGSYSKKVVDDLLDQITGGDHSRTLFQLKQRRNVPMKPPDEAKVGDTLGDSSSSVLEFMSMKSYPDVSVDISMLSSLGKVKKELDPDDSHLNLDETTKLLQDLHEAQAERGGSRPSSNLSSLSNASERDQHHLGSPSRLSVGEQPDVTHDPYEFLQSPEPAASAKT
The experiment in a line: Binding affinity to human BRD9 expressed in bacterial system assessed as remaining binding level at 1 uM by BROMOscan assay relative to control.
Settings: not given
Consider `Cn1cc2c3c(c[nH]c(=O)c31)-c1cc(CS(C)(=O)=O)ccc1N(c1ccc(F)cc1)C2`, for which the Activity is 96%.
On to `Cn1cc2c3c(c[nH]c3c1=O)CN(c1ccccn1)c1ccc(CS(C)(=O)=O)cc1-2`, for which the Activity is 38%.
Still for that read-out and setting: next, `Cn1cc2c3c(c[nH]c3c1=O)CN(c1ccc(F)cc1F)c1ccc(CS(C)(=O)=O)cc1-2`: 56%.

Another assay deals with Bromodomain and WD repeat-containing protein 1 (Homo sapiens) (UniProt Q9NSI6). The experiment in a line: Binding affinity to human WDR9 bromodomain 2 expressed in bacterial system assessed as remaining binding level at 1 uM by BROMOscan assay relative to control.
Sequence of Bromodomain and WD repeat-containing protein 1 (Homo sapiens) (Q9NSI6 whole entry): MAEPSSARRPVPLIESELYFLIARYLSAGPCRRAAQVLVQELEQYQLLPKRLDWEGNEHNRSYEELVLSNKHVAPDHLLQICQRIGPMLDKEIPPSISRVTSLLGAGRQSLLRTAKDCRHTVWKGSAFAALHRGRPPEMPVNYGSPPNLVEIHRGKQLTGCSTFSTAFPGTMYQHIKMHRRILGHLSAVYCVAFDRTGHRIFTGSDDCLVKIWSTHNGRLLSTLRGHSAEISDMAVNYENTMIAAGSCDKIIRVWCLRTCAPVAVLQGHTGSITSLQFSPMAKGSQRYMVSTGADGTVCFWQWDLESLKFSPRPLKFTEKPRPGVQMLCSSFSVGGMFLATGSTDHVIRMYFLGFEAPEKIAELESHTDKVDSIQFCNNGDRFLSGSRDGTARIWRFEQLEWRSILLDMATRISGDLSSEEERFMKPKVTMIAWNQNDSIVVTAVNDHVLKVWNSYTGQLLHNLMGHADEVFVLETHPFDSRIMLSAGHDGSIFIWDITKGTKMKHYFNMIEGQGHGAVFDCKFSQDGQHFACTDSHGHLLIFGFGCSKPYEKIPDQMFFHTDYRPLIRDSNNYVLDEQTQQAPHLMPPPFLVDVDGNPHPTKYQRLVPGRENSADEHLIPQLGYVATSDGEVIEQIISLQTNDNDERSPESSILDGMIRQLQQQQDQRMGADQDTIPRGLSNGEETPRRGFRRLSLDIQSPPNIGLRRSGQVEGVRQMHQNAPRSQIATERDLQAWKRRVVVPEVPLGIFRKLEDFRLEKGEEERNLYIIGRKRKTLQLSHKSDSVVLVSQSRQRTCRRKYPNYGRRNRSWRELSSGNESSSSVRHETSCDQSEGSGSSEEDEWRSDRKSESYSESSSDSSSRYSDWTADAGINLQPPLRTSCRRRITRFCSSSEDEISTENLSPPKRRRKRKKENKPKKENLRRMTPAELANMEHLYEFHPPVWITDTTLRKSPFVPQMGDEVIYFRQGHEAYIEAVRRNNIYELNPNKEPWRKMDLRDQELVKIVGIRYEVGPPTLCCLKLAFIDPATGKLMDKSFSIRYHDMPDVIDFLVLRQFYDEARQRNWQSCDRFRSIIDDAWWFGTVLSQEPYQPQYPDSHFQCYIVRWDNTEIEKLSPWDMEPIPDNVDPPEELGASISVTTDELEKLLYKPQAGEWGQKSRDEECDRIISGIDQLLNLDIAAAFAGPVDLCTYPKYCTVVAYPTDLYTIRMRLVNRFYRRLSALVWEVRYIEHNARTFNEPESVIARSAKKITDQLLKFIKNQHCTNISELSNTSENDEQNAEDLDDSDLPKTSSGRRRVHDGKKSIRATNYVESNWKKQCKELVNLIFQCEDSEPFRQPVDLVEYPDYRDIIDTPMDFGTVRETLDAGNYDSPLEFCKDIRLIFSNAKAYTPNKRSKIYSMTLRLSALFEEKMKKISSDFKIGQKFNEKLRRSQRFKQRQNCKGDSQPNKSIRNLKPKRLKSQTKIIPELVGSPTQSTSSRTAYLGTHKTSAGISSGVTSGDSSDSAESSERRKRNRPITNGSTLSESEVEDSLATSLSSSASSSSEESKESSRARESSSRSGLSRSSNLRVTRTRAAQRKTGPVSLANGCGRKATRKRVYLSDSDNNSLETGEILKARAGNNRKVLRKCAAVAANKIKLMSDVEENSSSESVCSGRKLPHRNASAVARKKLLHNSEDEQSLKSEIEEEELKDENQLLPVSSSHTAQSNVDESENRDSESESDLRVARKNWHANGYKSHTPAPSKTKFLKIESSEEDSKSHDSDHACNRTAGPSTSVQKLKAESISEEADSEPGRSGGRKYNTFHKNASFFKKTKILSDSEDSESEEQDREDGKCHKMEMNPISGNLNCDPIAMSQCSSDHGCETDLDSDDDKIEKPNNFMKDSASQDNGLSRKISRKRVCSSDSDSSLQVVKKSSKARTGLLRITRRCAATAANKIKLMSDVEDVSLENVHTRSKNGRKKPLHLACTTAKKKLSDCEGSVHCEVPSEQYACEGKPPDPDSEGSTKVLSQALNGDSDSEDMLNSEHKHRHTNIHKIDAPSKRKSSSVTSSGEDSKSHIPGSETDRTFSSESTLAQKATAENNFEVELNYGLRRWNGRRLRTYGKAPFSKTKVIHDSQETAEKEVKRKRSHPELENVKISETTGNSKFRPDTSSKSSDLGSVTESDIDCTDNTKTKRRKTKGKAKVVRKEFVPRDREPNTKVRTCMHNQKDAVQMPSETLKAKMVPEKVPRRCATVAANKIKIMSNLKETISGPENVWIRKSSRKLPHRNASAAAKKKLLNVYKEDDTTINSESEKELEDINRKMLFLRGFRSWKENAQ
Settings: not given
Regarding `Cn1cc2c3c(c[nH]c(=O)c31)-c1cc(CS(C)(=O)=O)ccc1N(c1ccc(F)cc1)C2`, the Activity was 100%.
As to `Cn1cc2c3c(c[nH]c3c1=O)CN(c1ccccn1)c1ccc(CS(C)(=O)=O)cc1-2`, the Activity is 89%.
The same measure, in the same setting: to `Cn1cc2c3c(c[nH]c3c1=O)CN(c1ccc(F)cc1F)c1ccc(CS(C)(=O)=O)cc1-2` belongs 95%.

The next assay deals with SWI/SNF-related matrix-associated actin-dependent regulator of chromatin subfamily A member 4 (Homo sapiens) (UniProt P51532). The assay is described as follows: Binding affinity to human SMARCA4 expressed in bacterial system assessed as remaining binding level at 1 uM by BROMOscan assay relative to control.
Sequence of SWI/SNF-related matrix-associated actin-dependent regulator of chromatin subfamily A member 4 (Homo sapiens) (P51532 whole entry): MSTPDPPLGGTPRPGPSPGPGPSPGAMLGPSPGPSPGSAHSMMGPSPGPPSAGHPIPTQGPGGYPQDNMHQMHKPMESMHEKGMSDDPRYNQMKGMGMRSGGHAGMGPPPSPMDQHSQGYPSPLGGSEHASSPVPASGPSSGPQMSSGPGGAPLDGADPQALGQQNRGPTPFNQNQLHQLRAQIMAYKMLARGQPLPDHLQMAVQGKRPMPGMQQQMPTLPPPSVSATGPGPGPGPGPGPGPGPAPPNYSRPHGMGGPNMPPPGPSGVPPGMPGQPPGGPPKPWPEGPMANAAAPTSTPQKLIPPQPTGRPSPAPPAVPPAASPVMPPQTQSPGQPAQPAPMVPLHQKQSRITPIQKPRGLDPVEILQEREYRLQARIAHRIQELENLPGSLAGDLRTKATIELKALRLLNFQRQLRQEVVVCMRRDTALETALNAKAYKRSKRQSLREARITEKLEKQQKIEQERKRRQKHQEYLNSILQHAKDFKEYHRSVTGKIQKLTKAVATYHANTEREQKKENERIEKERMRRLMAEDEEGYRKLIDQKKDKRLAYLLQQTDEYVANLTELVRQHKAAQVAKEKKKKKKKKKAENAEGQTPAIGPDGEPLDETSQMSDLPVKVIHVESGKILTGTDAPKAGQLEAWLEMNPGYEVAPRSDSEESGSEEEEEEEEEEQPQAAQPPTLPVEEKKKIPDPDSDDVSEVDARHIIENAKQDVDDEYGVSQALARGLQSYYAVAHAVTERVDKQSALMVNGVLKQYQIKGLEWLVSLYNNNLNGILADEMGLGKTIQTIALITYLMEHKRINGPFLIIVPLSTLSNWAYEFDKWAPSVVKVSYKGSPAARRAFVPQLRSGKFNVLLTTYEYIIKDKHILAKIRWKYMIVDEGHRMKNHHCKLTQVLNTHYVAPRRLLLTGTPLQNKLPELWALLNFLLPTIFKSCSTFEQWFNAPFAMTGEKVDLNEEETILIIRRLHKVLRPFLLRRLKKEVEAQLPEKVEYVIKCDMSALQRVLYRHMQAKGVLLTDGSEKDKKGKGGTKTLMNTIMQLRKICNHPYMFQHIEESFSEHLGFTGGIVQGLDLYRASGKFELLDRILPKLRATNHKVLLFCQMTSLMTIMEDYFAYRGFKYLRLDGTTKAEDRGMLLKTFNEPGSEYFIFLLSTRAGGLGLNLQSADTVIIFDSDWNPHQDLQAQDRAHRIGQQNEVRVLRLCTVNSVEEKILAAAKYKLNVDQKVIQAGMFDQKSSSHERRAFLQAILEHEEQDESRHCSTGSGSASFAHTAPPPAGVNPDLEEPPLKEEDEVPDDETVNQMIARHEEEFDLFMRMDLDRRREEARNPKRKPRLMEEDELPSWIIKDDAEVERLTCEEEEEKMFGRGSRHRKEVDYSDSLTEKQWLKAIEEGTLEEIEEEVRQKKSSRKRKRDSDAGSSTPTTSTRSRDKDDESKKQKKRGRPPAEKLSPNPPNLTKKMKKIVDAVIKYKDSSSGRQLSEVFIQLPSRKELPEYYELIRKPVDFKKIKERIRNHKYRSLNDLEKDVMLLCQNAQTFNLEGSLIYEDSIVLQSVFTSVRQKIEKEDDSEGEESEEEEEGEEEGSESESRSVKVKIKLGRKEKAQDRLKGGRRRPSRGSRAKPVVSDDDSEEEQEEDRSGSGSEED
Settings: not given
For `Cn1cc2c3c(c[nH]c(=O)c31)-c1cc(CS(C)(=O)=O)ccc1N(c1ccc(F)cc1)C2`, the Activity was determined as 86%.
`Cn1cc2c3c(c[nH]c3c1=O)CN(c1ccccn1)c1ccc(CS(C)(=O)=O)cc1-2`: the Activity is 56%.
`Cn1cc2c3c(c[nH]c3c1=O)CN(c1ccc(F)cc1F)c1ccc(CS(C)(=O)=O)cc1-2`: the Activity was 90%.

The subject of the next assay is MX1. The assay is described as follows: Antiproliferative activity against human MX1 cells incubated for 72 hrs by cell-titer Glo assay. The format is functional, cell-based. The note with it: MX1, 72 h.
Regarding `Cn1cc2c3c(c[nH]c(=O)c31)-c1cc(CS(C)(=O)=O)ccc1N(c1ccc(F)cc1)C2`, a half-maximal effect (EC50) was put at 1.4 nM.
Same read-out and setting: to `Cn1cc2c3c(c[nH]c3c1=O)CN(c1ccccn1)c1ccc(CS(C)(=O)=O)cc1-2` belongs 1.3 nM.
Same read-out and setting: next, `Cn1cc2c3c(c[nH]c3c1=O)CN(c1ccc(F)cc1F)c1ccc(CS(C)(=O)=O)cc1-2`: 3.4 nM.

The next assay deals with Bromodomain-containing protein 4 (Homo sapiens, UniProt O60885). The experiment in a line: Binding affinity to BRD4 bromodomain 1 (K57 to E168 amino acids) (unknown origin) using Alexa647-labeled BET-inhibitor as fluorescent probe by bromodomain TR-FRET binding assay.
Settings: not given
A general note: Time-resolved FRET reads energy transfer from a long-lived donor to a nearby acceptor.
Regarding `Cn1cc2c3c(c[nH]c(=O)c31)-c1cc(CS(C)(=O)=O)ccc1N(c1ccc(F)cc1)C2`, the Ki was determined as 1.2 nM. This counts as single-digit nanomolar.
`Cn1cc2c3c(c[nH]c3c1=O)CN(c1ccccn1)c1ccc(CS(C)(=O)=O)cc1-2` returned a Ki of 1.2 nM.
Same read-out and setting: to `Cn1cc2c3c(c[nH]c3c1=O)CN(c1ccc(F)cc1F)c1ccc(CS(C)(=O)=O)cc1-2` belongs 2.6 nM.

The target in a further assay is Transcription initiation factor TFIID subunit 1 (Homo sapiens) (UniProt P21675). The experiment in a line: Binding affinity to human TAF1 bromodomain 2 expressed in bacterial system assessed as remaining binding level at 1 uM by BROMOscan assay relative to control.
Settings: not given
Regarding `Cn1cc2c3c(c[nH]c(=O)c31)-c1cc(CS(C)(=O)=O)ccc1N(c1ccc(F)cc1)C2`, the Activity turned out to be 95%.
The same measure, in the same setting: to `Cn1cc2c3c(c[nH]c3c1=O)CN(c1ccccn1)c1ccc(CS(C)(=O)=O)cc1-2` belongs 15%.
Same read-out and setting: next, `Cn1cc2c3c(c[nH]c3c1=O)CN(c1ccc(F)cc1F)c1ccc(CS(C)(=O)=O)cc1-2`: 3.8%.

By EC50 is commonly meant the concentration needed to bring the measured effect to its halfway point. Higher therefore signals a less potent agent. What is called Ki is a dissociation constant, usually derived from enzyme kinetics or from competition with a known ligand.
